In PubChem BioAssay (NCI):
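Five compound concentrations were applied to cells in 96-well plates for 48 hours; endpoints were derived by simple linear interpolation of the resulting dose-response curve. GI50 is the concentration that inhibits growth by half. TGI: concentration producing complete growth inhibition.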 Activity calls are given as the source filed them. Rule as the data show it: active = GI50 below about 0.43 µM; inactive = the rest.

Tests used:
Assay in all cases: inhibition of tumour cell growth, NCI panel, 48 h
KM20L2 colon = test system: KM20L2 colon
M19-MEL melanoma = test system: M19-MEL melanoma
SNB-78 CNS = test system: SNB-78 CNS
XF 498 CNS = test system: XF 498 CNS
HOP-18 NSCLC = test system: HOP-18 NSCLC
DMS 114 small cell lung = test system: DMS 114 small cell lung
DLD-1 colon = test system: DLD-1 colon
BT-549 breast = test system: BT-549 breast
MDA-N = test system: MDA-N

| SMILES | TGI (KM20L2 colon) [µM] | TGI (M19-MEL melanoma) | TGI (SNB-78 CNS) | TGI (XF 498 CNS) [µM] | TGI (HOP-18 NSCLC) [µM] | TGI (DMS 114 small cell lung) | TGI (DLD-1 colon) | TGI (BT-549 breast) [µM] | TGI (MDA-N) [µM] | GI50 (KM20L2 colon) [µM] | GI50 (SNB-78 CNS) | GI50 (HOP-18 NSCLC) [µM] | GI50 (DLD-1 colon) | outcome (KM20L2 colon) | GI50 (M19-MEL melanoma) | outcome (XF 498 CNS) | GI50 (DMS 114 small cell lung) [µg/mL] |
| --- | --- | --- | --- | --- | --- | --- | --- | --- | --- | --- | --- | --- | --- | --- | --- | --- | --- |
| CCCCOC(=O)NC(=O)c1cn(C2CCCCC2)c(=O)[nH]c1=O | > 100 | > 100 µM | > 100 µM | > 100 | 49.4 | > 100 µM | > 100 µM |  |  |  |  |  |  |  |  |  |  |
| Clc1ccc(-c2c(C3=NCCCN3)nnn2-c2ccc(Cl)cc2)cc1 | > 100 |  | > 100 µM | 53.5 | > 100 | 49.5 µM | > 100 µM | > 100 | 39.3 |  |  |  |  |  |  |  |  |
| N.N.O=C([O-])P(=O)([O-])[O-].[Na+].[Pt+4] | > 100 |  | > 100 µM |  | > 100 |  | > 100 µM |  |  | > 100 | > 100 µM | > 100 | > 100 µM |  |  |  |  |
| Cc1ccc2c(c1)CN(C(=O)CCC(=O)OCc1ccccc1)c1ccc(C)cc1CN2C(=O)CCC(=O)OCc1ccccc1 | > 100 | > 100 µM | > 100 µM |  | > 100 | > 100 µM | > 100 µM | > 100 | > 100 |  |  |  |  |  |  |  |  |
| c1cc2c(ncc3cscc32)s1 |  | > 100 µM | > 100 µM | > 100 |  | > 100 µM | > 100 µM |  | > 100 |  |  |  |  |  |  |  |  |
| CCO/N=C(/N)c1ncn(Cc2ccccc2)c1NCC(OCC)OCC | > 100 | > 100 µM | > 100 µM | > 100 |  | > 100 µM | > 100 µM |  |  |  |  |  |  |  |  |  |  |
| Cc1[nH]c2ccccc2c1C1Cc2ccccc2N1C(=O)/C(Cl)=C/c1ccccc1 (configuration not stated) | > 100 | > 100 µM | > 100 µM | > 100 | > 100 | > 100 µM | > 100 µM |  |  |  |  |  |  |  |  |  |  |
| CCOc1ccc2c(c1)[n+]([O-])c(-c1nc3ccccc3s1)c(N)[n+]2[O-] | > 100 | > 100 µM | > 100 µM | 86.6 | 92.1 | > 100 µM | > 100 µM |  |  |  |  |  |  |  |  |  |  |
| CS(=O)(=O)c1cc(=O)c2ccccc2s1 | 28.2 | 18.3 µM | 14 µM | 4.4 |  | 11.2 µM | 4.21 µM | 35.6 | 16.2 |  |  |  |  |  |  |  |  |
| N#C/C(=C\c1cc2ccccc2c2ccccc12)c1ccccc1 | 13.8 | > 100 µM | 34.2 µM | 12.5 | > 61.2 | > 36.1 µM | > 90.2 µM |  |  |  |  |  |  |  |  |  |  |
| OC/C=C(\I)CCCOCOCc1ccccc1 | > 100 | > 100 µM | > 100 µM | 45.8 |  | 69 µM | > 100 µM |  |  |  |  |  |  |  |  |  |  |
| COc1ccc(/C(Cl)=C(\C=O)c2ccc([N+](=O)[O-])cc2)cc1 | 41.8 |  | 50.1 µM | 40.4 | > 100 | 68.5 µM | 63.1 µM |  |  |  |  |  |  |  |  |  |  |
| CC(C)c1ccc(C(c2ccc(OCC(=O)O)cc2)c2ccc(C(C)C)cc(=O)c2O)c(O)c(=O)c1 | > 100 | 69.9 µM | 56.7 µM | 9.95 | 55.6 | 8.25 µM | 21.3 µM |  |  |  |  |  |  |  |  |  |  |
| COC(=O)C(=O)C(C(=O)C=C(C)C)C(=O)C(=O)Nc1ccc(C)cc1C (configuration not stated) | > 100 | > 100 µM | > 100 µM | > 100 | > 100 | > 100 µM | > 100 µM |  |  |  |  |  |  |  |  |  |  |
| CC(C)N1CN(C(C(=O)N[C@@H]2C(=O)N3C2SC(C)(C)C3C(=O)O)c2ccccc2)CSC1=S (some centres not stated) | > 100 | > 100 µM | > 100 µM | > 100 | > 100 | > 100 µM | > 100 µM |  |  |  |  |  |  |  |  |  |  |
| CCc1ccc(Nc2ccc([N+](=O)[O-])cc2[N+](=O)[O-])cc1 | > 100 | > 100 µM | > 100 µM | > 100 |  | > 100 µM | > 100 µM |  |  |  |  |  |  |  |  |  |  |
| COc1ccc(/C=C\c2cc(OC)c(OC)c(OC)c2)cc1OC(=O)NCCN(C)C | 1.17 | 20.1 µM |  | < 0.0001 | > 100 | < 0.0001 µM | 15.9 µM |  |  |  |  |  |  |  |  |  |  |
| Cc1nc(-c2ccccc2)c(-c2ccccc2)s1 |  |  |  |  |  |  |  | 67.1 | 35.1 |  |  |  |  |  |  |  |  |
| Fc1ccc(C2SCc3nc4ccccc4n32)cc1Cl (configuration not stated) | > 100 | 37.1 µM | > 100 µM | 31.7 |  | 57.4 µM | > 100 µM |  |  |  |  |  |  |  |  |  |  |
| CC1=N/C(=C\c2cccc([N+](=O)[O-])c2)C(=O)O1 | > 100 | > 100 µM | > 100 µM |  | > 100 | > 100 µM | > 100 µM |  |  |  |  |  |  |  |  |  |  |
| CSc1nc2cc(S(=O)(=O)N3CCCCC3)ccc2s1 |  |  |  |  |  |  |  | > 100 | > 100 |  |  |  |  |  |  |  |  |

| SMILES | TGI (KM20L2 colon) [µM] | TGI (M19-MEL melanoma) | TGI (SNB-78 CNS) | TGI (XF 498 CNS) [µM] | TGI (HOP-18 NSCLC) [µM] | TGI (DMS 114 small cell lung) | TGI (DLD-1 colon) | TGI (BT-549 breast) [µM] | TGI (MDA-N) [µM] | GI50 (KM20L2 colon) [µM] | GI50 (SNB-78 CNS) | GI50 (HOP-18 NSCLC) [µM] | GI50 (DLD-1 colon) | outcome (KM20L2 colon) | GI50 (M19-MEL melanoma) | outcome (XF 498 CNS) | GI50 (DMS 114 small cell lung) [µg/mL] |
| --- | --- | --- | --- | --- | --- | --- | --- | --- | --- | --- | --- | --- | --- | --- | --- | --- | --- |
| Cc1nc2ccccc2c(=O)n1-c1ccccc1F | > 100 | > 100 µM | > 100 µM |  | > 100 | > 100 µM | > 100 µM |  |  |  |  |  |  |  |  |  |  |
| Cn1cnc([N+](=O)[O-])c1[Se]c1nc(N)nc2c1ncn2C1OC(CO)C(O)C1O (configuration not stated) |  |  |  |  |  |  |  | > 100 | > 100 |  |  |  |  |  |  |  |  |
| CCCS(=O)(=O)/C(=C(\c1ccc(Br)cc1)S(=O)(=O)CCC)c1ccc(Br)cc1 | > 10 | > 10 µM | > 10 µM | > 10 | > 10 |  | > 10 µM |  |  |  |  |  |  |  |  |  |  |
| COC(=O)C(=Cc1cc(OC)c(OC)c(OC)c1-c1cc2c(cc1C(C)=O)OCO2)C(=O)OC | 62.8 | 75 µM |  | 59.7 | 87.4 | 99.4 µM | 53.7 µM |  |  |  |  |  |  |  |  |  |  |
| C/C(=C1/CCC/C(=C(/C)c2ccccc2)C1=O)c1ccccc1 | > 100 | 58.3 µM | > 100 µM | 82 | > 100 | 70.3 µM | > 100 µM |  |  |  |  |  |  |  |  |  |  |
| CCCCCCC(=O)C/C(=N/NC(N)=S)C(=O)NC1C2CC3CC(C2)CC1C3 (configuration not stated) | > 100 | > 100 µM | > 100 µM |  |  |  | > 100 µM |  |  |  |  |  |  |  |  |  |  |
| COc1cccc(N2C(=O)[C@H]3CC(C)c4c([nH]c5ccccc45)[C@H]3C2=O)c1 (some centres not stated) | > 100 | > 100 µM | > 100 µM | > 100 |  |  | > 100 µM |  |  |  |  |  |  |  |  |  |  |
| CC(C)CCCC(=O)CCCCCCC(=O)CCN(O)C(=O)C(N)CO (configuration not stated) |  |  |  |  |  |  |  | 34.5 | 49.4 |  |  |  |  |  |  |  |  |
| CCCCN1CSC(=S)N(Cc2ccccc2)C1 |  |  |  |  |  |  |  | > 100 | > 100 |  |  |  |  |  |  |  |  |
| C/C=C1/C(=C/c2[nH]c(/C=c3\[nH]/c(=C/C4=NC(=O)C(CC)=C4C)c(C)c3CCC(=O)O)c(CCC(=O)O)c2C)NC(=O)C1C (configuration not stated) |  | > 150 µg/mL | > 150 µg/mL |  |  | > 150 µg/mL | > 150 µg/mL |  |  |  | > 150 µg/mL |  | > 150 µg/mL | inactive | > 150 µg/mL | inactive | > 150 |
| COC(C(O)c1ccc2c(c1)OCO2)P(=O)(c1ccccc1)c1ccccc1 (configuration not stated) |  | > 100 µM | > 100 µM | > 100 |  | > 100 µM | > 100 µM |  |  |  |  |  |  |  |  |  |  |
| O=c1[nH]c(=O)n(C2OC(CO)C(O)C(O)C2O)cc1F (configuration not stated) | > 100 | > 100 µM | > 100 µM | > 100 | > 100 | > 100 µM | > 100 µM | > 100 | > 100 |  |  |  |  |  |  |  |  |
| COc1ccc(CNc2nc3cc(C(F)(F)F)ccc3nc2C)cc1OC | > 100 | > 100 µM | 55.8 µM | > 100 |  |  | > 100 µM |  |  |  |  |  |  |  |  |  |  |
| Cc1ccc(-c2cc(=O)c3cc(C)c(C)c(C(=O)O)c3o2)cc1C | > 100 | > 100 µM | > 100 µM |  | > 100 | > 100 µM | > 100 µM |  |  |  |  |  |  |  |  |  |  |
| O=C(Nc1ccc(Cl)cc1Cl)C(=O)C(C(=O)c1ccncc1)C1OC(=O)c2ccccc21 (configuration not stated) | > 100 | > 100 µM | > 100 µM | > 100 | > 100 | > 100 µM | > 100 µM |  |  |  |  |  |  |  |  |  |  |
| CC(=O)O.[Au].c1ccc([PH+](c2ccccc2)c2ccccc2)cc1 | 35 | 15.6 µM | > 70.3 µM |  | 3.86 |  | 4.4 µM |  |  | 10.3 | 8.06 µM | 2.14 | 1.9 µM |  | 2.67 µM |  |  |
| COC1=CC2(C=CC1=O)c1cc(OC)c(OC)cc1CCN2C(=O)c1ccccc1 (configuration not stated) |  |  | > 100 µM |  | > 100 | > 100 µM | > 100 µM |  |  |  |  |  |  |  |  |  |  |
| COC(=O)c1cc(C)c(C)c2c1NC(=O)CNC2=O | > 100 | > 100 µM | > 100 µM | > 100 |  | > 100 µM | > 100 µM |  |  |  |  |  |  |  |  |  |  |
| N#CCc1ccc(C(C#N)/C(CCCC(=O)Nc2cccc([N+](=O)[O-])c2)=N/NC(N)=S)cc1 (configuration not stated) | > 100 |  | > 100 µM |  | > 100 | > 100 µM | > 100 µM |  |  |  |  |  |  |  |  |  |  |
| CC(=O)N1C/C(=C\c2ccc(N(C)C)cc2)C(=O)/C(=C/c2ccc(N(C)C)cc2)C1 | > 100 | > 100 µM | > 100 µM | > 100 | > 100 | 60.1 µM | > 100 µM |  |  |  |  |  |  |  |  |  |  |
